The values that follow come from patent US20210047291A1, “PESTICIDALLY ACTIVE HETEROCYCLIC DERIVATIVES WITH SULFUR CONTAINING SUBSTITUENTS” (SYNGENTA PARTICIPATIONS AG, priority 2018, published 2021).

Structures are written as SMILES.

What all share (assay type): in vivo
In data set [1] the test system is Euschistus heros (Neotropical Brown Stink Bug). The data set can be described thus: Example B3: Euschistus heros, soybean leaves, N2 nymphs. The conditions noted are these: for percent effect (mortality or growth inhibition) at 200 ppm: Euschistus heros, 120 h, application rate of 200 ppm, N2 nymphs, 5 days after infestation, read-out: effect in at least one of the two categories (mortality or growth inhibition). The method, then:
Soybean leaves on agar in 24-well microtiter plates were sprayed with aqueous test solutions prepared from 10,000 ppm DMSO stock solutions. After drying the leaves were infested with N2 nymphs. The samples were assessed for mortality and growth inhibition in comparison to untreated samples 5 days after infestation.

The next data set has as its system Melodoigyne incognita. The data set can be described thus: Example B14: Melodoigyne incognita juvenile mobility, in vitro profiling in 96 well plate. The conditions noted are these: 200 ppm; after 24 h; second stage juveniles; read-out: control (juvenile mobility). As for the experimental part: Test solutions are prepared from 10,000 ppm DMSO stock solutions with a TECAN robot to achieve 20 μL of 1000, 200, 100, 50, 25 and 12.5 ppm. For each concentration three replicates are produced. Per well, 80 μL nematode solution is added containing 100 to 150 freshly harvested second stage juveniles of Melodoigyne incognita. The plates are covered and stored at room temperature in the dark and incubated for 24 h. Mobility of the exposed juveniles in a treated well is measured using an imaging tool and compared to an average of 12 untreated replicates.

Data set [2] concerns Plutella xylostella (Diamond Back Moth). The data set can be described thus: Example B7: Plutella xylostella, artificial diet, L2 larvae. The conditions noted are these: 120 h, application rate of 200 ppm, L2 larvae, 5 days after infestation, read-out: effect in at least one of the two categories (mortality or growth inhibition). The method, then:
24-well microtiter plates with artificial diet were treated with aqueous test solutions prepared from 10,000 ppm DMSO stock solutions by pipetting. After drying, the plates were infested with L2 larvae (10 to 15 per well). The samples were assessed for mortality and growth inhibition in comparison to untreated samples 5 days after infestation.

In data set [3] the test system is Myzus persicae (Green peach aphid). Kind of data set: Example B6: Myzus persicae systemic activity, pea seedlings. As to conditions: for mortality at 24 ppm: Myzus persicae, 144 h, test rate of 24 ppm, mixed ages, 6 days after placing seedlings into test solutions, read-out: mortality. The method, then: Roots of pea seedlings infested with an aphid population of mixed ages were placed directly into aqueous test solutions prepared from 10,000 DMSO stock solutions. The samples were assessed for mortality 6 days after placing seedlings into test solutions.

The subject of data set [4] is Spodoptera littoralis (Egyptian Cotton Leaf Worm). The data set can be described thus: Example B9: Spodoptera littoralis, cotton leaf discs (mortality, anti-feeding, growth inhibition). As to conditions: foliar, 72 h, application rate of 200 ppm, L1 larvae, 3 days after infestation, read-out: control (mortality, anti-feeding effect or growth inhibition). As for the experimental part: Cotton leaf discs were placed onto agar in 24-well microtiter plates and sprayed with aqueous test solutions prepared from 10,000 ppm DMSO stock solutions. After drying the leaf discs were infested with five L1 larvae. The samples were assessed for mortality, anti-feeding effect, and growth inhibition in comparison to untreated samples 3 days after infestation. Control of Spodoptera littoralis by a test sample is given when at least one of the categories mortality, anti-feedant effect, and growth inhibition is higher than the untreated sample.

Data set [5] deals with Diabrotica Balteata (Corn Root Worm). Kind of data set: Example B2: Diabrotica balteata, maize sprouts, L2 larvae. As to conditions: for percent effect (mortality or growth inhibition) at 200 ppm: Diabrotica balteata, 96 h, application rate of 200 ppm, L2 larvae, 4 days after infestation, read-out: effect in at least one of the two categories (mortality or growth inhibition). As for the experimental part:
Maize sprouts placed onto an agar layer in 24-well microtiter plates were treated with aqueous test solutions prepared from 10,000 ppm DMSO stock solutions by spraying. After drying, the plates were infested with L2 larvae (6 to 10 per well). The samples were assessed for mortality and growth inhibition in comparison to untreated samples 4 days after infestation.

Data set [6] deals with Tetranychus urticae (Two-Spotted Spider Mite). The data set can be described thus: Example B10: Tetranychus urticae feeding/contact activity, bean leaf discs. As to conditions: foliar, 192 h, application rate of 200 ppm, mixed population (mobile stages), 8 days after infestation. As for the experimental part: Bean leaf discs on agar in 24-well microtiter plates were sprayed with aqueous test solutions prepared from 10,000 ppm DMSO stock solutions. After drying the leaf discs were infested with a mite population of mixed ages. The samples were assessed for mortality on mixed population (mobile stages) 8 days after infestation.

The test system of data set [7] is Myzus persicae (Green peach aphid). Kind of data set: Example B5: Myzus persicae feeding/contact activity, sunflower leaf discs. As to conditions: foliar; for mortality at 200 ppm: Myzus persicae, 144 h, application rate of 200 ppm, mixed ages, 6 days after infestation, read-out: mortality. The method, then:
Sunflower leaf discs were placed onto agar in a 24-well microtiter plate and sprayed with aqueous test solutions prepared from 10,000 ppm DMSO stock solutions. After drying, the leaf discs were infested with an aphid population of mixed ages. The samples were assessed for mortality 6 days after infestation.

Data set [8] relates to Frankliniella occidentalis (Western Flower Thrips). The data set can be described thus: Example B4: Frankliniella occidentalis feeding/contact activity, sunflower leaf discs. The conditions noted are these: foliar, 168 h, application rate of 200 ppm, mixed ages, 7 days after infestation. As for the experimental part: Sunflower leaf discs were placed on agar in 24-well microtiter plates and sprayed with aqueous test solutions prepared from 10,000 DMSO stock solutions. After drying the leaf discs were infested with a Frankliniella population of mixed ages. The samples were assessed for mortality 7 days after infestation.

As a reminder, the mortality is the share of the test organisms that died. As to `CCC(=O)N(C)c1cnc(-c2nc3cc(C(F)(F)F)ncc3n2C)c(S(=O)(=O)CC)c1` [P23, N-[5-ethylsulfonyl-6-[3-methyl-6-(trifluoromethyl)imidazo[4,5-c]pyridin-2-yl]-3-pyridyl]-N-methyl-propanamide], the mortality at 50 ppm in [1] (Concentration 50 ppm, Euschistus heros (Example B3), read-out: Mortality (%)) is 100%. Further, the percent effect (mortality or growth inhibition) at 200 ppm in data set [1], in data set [2] and in data set [5] was at least 80% in each case. The pest or weed control at 200 ppm in the data set with Melodoigyne incognita is at least 80%. Further, the mortality at 1.5 ppm in [3] (Concentration 1.5 ppm, Myzus persicae (systemic, Example B6), read-out: Mortality (%)) worked out at 100%. Besides, the mortality at 24 ppm in [3] is at least 80%. For the same molecule, the percent control (mortality, anti-feedant effect or growth inhibition) at 200 ppm in data set [4] was at least 80%. The mortality at 200 ppm in [6] and in [7] was at least 80% each time. Further, in data set [7] (Concentration 12.5 ppm, Myzus persicae (feeding/contact, Example B5), read-out: Mortality (%)), the mortality at 12.5 ppm amounted to 90%.
For `CCS(=O)(=O)c1cc(N(C)C(=O)C2CC2)cnc1-c1nc2cc(C(F)(F)F)ncc2n1C` [P9, N-[5-ethylsulfonyl-6-[3-methyl-6-(trifluoromethyl)imidazo[4,5-c]pyridin-2-yl]-3-pyridyl]-N-methyl-cyclopropanecarboxamide], the percent effect (mortality or growth inhibition) at 200 ppm in data set [1], in data set [2] and in data set [5] was at least 80% throughout. For the same molecule, the pest or weed control at 200 ppm in the data set on Melodoigyne incognita was at least 80%. The mortality at 24 ppm in data set [3] was at least 80%. The mortality at 200 ppm in data set [8] and in data set [7] was at least 80% throughout. In addition, the percent control (mortality, anti-feedant effect or growth inhibition) at 200 ppm in data set [4] is at least 80%.
`CCS(=O)(=O)c1cc(NC(C)=O)cnc1-c1nc2cc(C(F)(F)F)ncc2n1C` [P4, N-[5-ethylsulfonyl-6-[3-methyl-6-(trifluoromethyl)imidazo[4,5-c]pyridin-2-yl]-3-pyridyl]acetamide]: the percent effect (mortality or growth inhibition) at 200 ppm in [1] and in data set [5] was at least 80% each time. Further, in [3], the mortality at 24 ppm is at least 80%. The mortality at 200 ppm in data set [8] and in data set [7] was at least 80% each time. In addition, the “Mortality (%)” value in [5] (Concentration 200 ppm, Diabrotica balteata (Example B2), listed as drawing 154) is listed as 100%.
In the case of `CCS(=O)(=O)c1cc(N(C)C(=O)C2(C#N)CC2)cnc1-c1nc2cc(C(F)(F)F)ncc2n1C` [P38, 1-cyano-N-[5-ethylsulfonyl-6-[3-methyl-6-(trifluoromethyl)imidazo[4,5-c]pyridin-2-yl]-3-pyridyl]-N-methyl-cyclopropanecarboxamide], the percent effect (mortality or growth inhibition) at 200 ppm in [1], in [2] and in data set [5] was at least 80% each time. In addition, the pest or weed control at 200 ppm in the data set on Melodoigyne incognita is at least 80%. In [3], the mortality at 24 ppm is at least 80%. The mortality at 200 ppm in data set [6] and in data set [7] was at least 80% throughout.
Regarding `CCS(=O)(=O)c1cc(N(C)C(=O)C(F)F)cnc1-c1nc2cc(C(F)(F)F)ncc2n1C` [P13, N-[5-ethylsulfonyl-6-[3-methyl-6-(trifluoromethyl)imidazo[4,5-c]pyridin-2-yl]-3-pyridyl]-2,2-difluoro-N-methyl-acetamide], the percent effect (mortality or growth inhibition) at 200 ppm in [1], in data set [2] and in [5] was at least 80% in each case. Further, the pest or weed control at 200 ppm in the data set with Melodoigyne incognita was at least 80%. For the same molecule, the mortality at 24 ppm in [3] is at least 80%. Also, the percent control (mortality, anti-feedant effect or growth inhibition) at 200 ppm in [4] is at least 80%. In addition, the mortality at 200 ppm in data set [6] and in [7] was at least 80% in each case.
Turning to `CCS(=O)(=O)c1cc(N(C)C(=O)C(C)(C)C#N)cnc1-c1nc2cc(C(F)(F)F)ncc2n1C` [P43, 2-cyano-N-[5-ethylsulfonyl-6-[3-methyl-6-(trifluoromethyl)imidazo[4,5-c]pyridin-2-yl]-3-pyridyl]-N,2-dimethyl-propanamide], the percent effect (mortality or growth inhibition) at 200 ppm in data set [1], in [2] and in [5] was at least 80% throughout. For the same molecule, the pest or weed control at 200 ppm in the data set with Melodoigyne incognita was at least 80%. Also, the mortality at 24 ppm in [3] is at least 80%. Moreover, the mortality at 200 ppm in data set [8] and in data set [7] was at least 80% in each case. The percent control (mortality, anti-feedant effect or growth inhibition) at 200 ppm in data set [4] is at least 80%.
Regarding `CCS(=O)(=O)c1cc(N(C(C)=O)C2(C#N)CC2)cnc1-c1nc2cc(C(F)(F)F)ncc2n1C` [P42, N-(1-cyanocyclopropyl)-N-[5-ethylsulfonyl-6-[3-methyl-6-(trifluoromethyl)imidazo[4,5-c]pyridin-2-yl]-3-pyridyl]acetamide], the percent effect (mortality or growth inhibition) at 200 ppm in data set [1] and in data set [2] was at least 80% each time. In addition, the pest or weed control at 200 ppm in the data set with Melodoigyne incognita is at least 80%. Moreover, the mortality at 24 ppm in [3] is at least 80%. For the same molecule, the percent control (mortality, anti-feedant effect or growth inhibition) at 200 ppm in data set [4] is at least 80%. Further, the mortality at 200 ppm in data set [6] and in data set [7] was at least 80% in each case.
For the molecule `CCC(=O)N(OC)c1cnc(-c2nc3cc(C(F)(F)F)ncc3n2C)c(S(=O)(=O)CC)c1` [P29, N-[5-ethylsulfonyl-6-[3-methyl-6-(trifluoromethyl)imidazo[4,5-c]pyridin-2-yl]-3-pyridyl]-N-methoxy-propanamide], the percent effect (mortality or growth inhibition) at 200 ppm in data set [1], in [2] and in [5] was at least 80% in each case. In addition, the pest or weed control at 200 ppm in the data set on Melodoigyne incognita was at least 80%. Further, in [3], the mortality at 24 ppm is at least 80%. The percent control (mortality, anti-feedant effect or growth inhibition) at 200 ppm in data set [4] was at least 80%. The mortality at 200 ppm in data set [7] was at least 80%.
Consider `CCS(=O)(=O)c1cc(N(OC)C(C)=O)cnc1-c1nc2cc(C(F)(F)F)ncc2n1C` [P30, N-[5-ethylsulfonyl-6-[3-methyl-6-(trifluoromethyl)imidazo[4,5-c]pyridin-2-yl]-3-pyridyl]-N-methoxy-acetamide], for which the percent effect (mortality or growth inhibition) at 200 ppm in [1], in [2] and in data set [5] was at least 80% throughout. Besides, the pest or weed control at 200 ppm in the data set with Melodoigyne incognita is at least 80%. Besides, the mortality at 24 ppm in [3] is at least 80%. Moreover, the percent control (mortality, anti-feedant effect or growth inhibition) at 200 ppm in data set [4] is at least 80%. Besides, in [7], the mortality at 200 ppm was at least 80%.
With `CCS(=O)(=O)c1cc(N(C)C(=O)COC)cnc1-c1nc2cc(C(F)(F)F)ncc2n1C` [P12, N-[5-ethylsulfonyl-6-[3-methyl-6-(trifluoromethyl)imidazo[4,5-c]pyridin-2-yl]-3-pyridyl]-2-methoxy-N-methyl-acetamide], the percent effect (mortality or growth inhibition) at 200 ppm in data set [1], in [2] and in data set [5] was at least 80% in each case. Further, the pest or weed control at 200 ppm with Melodoigyne incognita was at least 80%. Also, in [3], the mortality at 24 ppm is at least 80%. Also, the percent control (mortality, anti-feedant effect or growth inhibition) at 200 ppm in data set [4] is at least 80%. In addition, the mortality at 200 ppm in data set [7] was at least 80%.
